The results in this text go back to patent US20070077268A1, “Hydrophobic carrier modified implants for beneficial agent delivery” (DePuy Products, Inc., priority 2005, published 2007).

Structures are written as SMILES.

The data set is described as follows: Cyclic loading test of UHMWPE pins, release of beta-carotene. In kind it is physicochemical. To be noted: pins soaked in 1.0 wt. % beta-carotene in squalane at 90° C. for 24 hours; peak load about 330 Newtons, 1.66 Hz, bovine calf serum, 37° C. As to the method:
UHMWPE (GUR 1050) is irradiated with gamma radiation (50 KGy or 5 Mrad) and melt annealed to quench free radicals. An AMTI Ortho-POD Wear Test Machine is used for the testing the UHMWPE cylindrical pin samples. The samples are ⅜ inch in diameter and 0.7 inch long, and are soaked in a 1.0 wt. % solution of beta-carotene in squalane at 90° C. for 24 hours. The samples are bright orange red in color, indicating the presence of beta-carotene.
A Paul loading curve with a peak load of about 330 Newtons is applied to the pins. The cycling frequency is 1.66 Hz. A 90% bovine calf serum, diluted with EDTA and sodium azide dissolved in reverse osmosis water, is used as lubricant. The temperature of the lubricant is 37° C.

`CC1=C(/C=C/C(C)=C/C=C/C(C)=C/C=C/C=C(C)/C=C/C=C(C)/C=C/C2=C(C)CCCC2(C)C)C(C)(C)CCC1` [beta-carotene]: the “release of beneficial agent from UHMWPE pins (colour change bright orange red to light orange)” value is on record as “released, activated by the load”.
